According to ChEMBL document CHEMBL3886646, “Cyclohexylamine derivatives having β2 adrenergic agonist and M3 muscarinic antagonist activities” (2016):

Columns and labels:
[1] = target: Beta-2 adrenergic receptor (Homo sapiens, UniProt P07550); test: Adrenergic Receptor Binding Assay: The study of binding to human adrenergic beta1 and beta2 receptors was performed using commercial membranes prepared from Sf9 cells where they are overexpressed (Perkin Elmer). The membrane suspensions (16 μg/well for beta1 and 5 μg/well for beta2) in assay buffer (75 mM Tris/HCl with 12.5 mM MgCl2 and 2 mM EDTA pH=7.4) were incubated with 0.14 or 0.6 nM of 3H-CGP12177 (Amersham) for beta 1 and beta 2 receptors respectively in a final volume of 250 μl, in GFC Multiscreen 96 well plates (Millipore) previously treated with assay buffer containing 0.3% PEI (Sigma). Non specific binding was measured in the presence of 1 μM propanolol. Incubation was maintained for 60 minutes at room temperature and with gentle shaking. The binding reactions were terminated by filtration and washing with 2.5 volumes of Tris/HCl 50 mM pH=7.4.; format: cell membranes
[2] = target: Muscarinic acetylcholine receptor M3 (Homo sapiens, UniProt P20309); test: Muscarinic Receptor Binding Assay: The study of binding to human muscarinic M1, M2, M3, M4 and M5 receptors was performed using commercial membranes (Perkin Elmer) prepared from CHO-K1 cells. Radioligand binding experiments were conducted in 96 polypropylene well plates in a total volume of 200 μl. All reagents were dissolved in assay binding buffer (PBS with calcium and magnesium, SIGMA), except compounds that were dissolved in DMSO 100%. Non-specific binding (NSB) was measured in the presence of 1 μM atropine. [3H]-NMS was used as the radioligand at a concentration of 1 nM for M2, M3 and M5 and 0.3 nM for M1 and M4. [3H]-NMS and antagonists were incubated with membranes that express human muscarinic receptors M1, M2, M3, M4 and M5 at concentrations of 8.1, 10, 4.9, 4.5 and 4.9 μg/well, respectively. After an incubation period of two hours with gentle shaking, 150 μl of the reaction mix were transferred to 96 GF/C filter plates (Millipore), previously treated with wash buffer (Tris 50 mM; NaCl 100 mM; pH: 7.4), containing 0.05% PEI (Sigma) during one hour. Bound and free [3H]-NMS were separated by rapid vacuum filtration in a manifold from Millipore and washed four times with ice cold wash buffer. After drying 30 min, 30 μl of OPTIPHASE Supermix were added to each well and radioactivity quantified using a Microbeta microplate scintillation counter.; format: cell-based
Sequence of Muscarinic acetylcholine receptor M3 (P20309 whole entry): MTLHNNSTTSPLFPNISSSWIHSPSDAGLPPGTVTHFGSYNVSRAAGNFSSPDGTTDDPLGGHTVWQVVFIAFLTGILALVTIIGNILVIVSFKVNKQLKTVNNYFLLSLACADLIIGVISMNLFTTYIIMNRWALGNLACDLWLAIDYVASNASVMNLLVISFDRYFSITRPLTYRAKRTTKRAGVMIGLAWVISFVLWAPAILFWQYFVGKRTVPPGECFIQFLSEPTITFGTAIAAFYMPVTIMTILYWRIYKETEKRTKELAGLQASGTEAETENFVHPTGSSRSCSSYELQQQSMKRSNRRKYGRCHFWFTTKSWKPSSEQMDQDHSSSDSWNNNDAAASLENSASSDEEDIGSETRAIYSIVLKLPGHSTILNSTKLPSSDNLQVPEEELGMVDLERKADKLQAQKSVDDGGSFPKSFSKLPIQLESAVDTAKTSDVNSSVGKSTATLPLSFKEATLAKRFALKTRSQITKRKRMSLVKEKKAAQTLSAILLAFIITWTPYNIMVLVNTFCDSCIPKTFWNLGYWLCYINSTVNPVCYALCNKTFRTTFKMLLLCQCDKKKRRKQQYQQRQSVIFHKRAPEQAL

Sequence of Beta-2 adrenergic receptor (P07550 whole entry): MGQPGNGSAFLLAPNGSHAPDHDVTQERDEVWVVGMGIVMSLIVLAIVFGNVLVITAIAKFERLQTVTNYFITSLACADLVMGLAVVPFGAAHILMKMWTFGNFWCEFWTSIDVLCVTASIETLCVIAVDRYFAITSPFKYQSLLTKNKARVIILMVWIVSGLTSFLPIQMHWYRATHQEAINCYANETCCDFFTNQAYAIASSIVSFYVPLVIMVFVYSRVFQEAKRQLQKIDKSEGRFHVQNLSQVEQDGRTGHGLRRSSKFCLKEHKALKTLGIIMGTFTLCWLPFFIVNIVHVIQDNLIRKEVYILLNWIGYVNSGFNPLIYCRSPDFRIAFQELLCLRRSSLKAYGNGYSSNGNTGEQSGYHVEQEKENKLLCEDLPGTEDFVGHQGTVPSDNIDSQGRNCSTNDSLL

Structure (SMILES)	IC50 [1]	IC50 [2]
COc1cc(NC(=O)CCN(C)[C@H]2CC[C@H](OC(=O)C(O)(c3cccs3)c3cccs3)CC2)c(Cl)cc1CNC[C@H](O)c1ccc(O)c2[nH]c(=O)ccc12	8.5 nM	1.1 nM
CN(CCC(=O)Nc1ccc(CNC[C@H](O)c2ccc(O)c3[nH]c(=O)ccc23)cc1Cl)[C@H]1CC[C@H](OC(=O)C(O)(c2cccs2)c2cccs2)CC1	6.7 nM	2.2 nM
CN(CCOc1ccc(CCNC[C@H](O)c2ccc(O)c3[nH]c(=O)ccc23)cc1)C1CCC(OC(=O)C(O)(c2cccs2)c2cccs2)CC1 (stereo partly specified)	36 nM	1.3 nM
